Assay results as given in US7566737B2 (Genfit, priority 2002, dated 2009).

What was measured:
human PPARγ = target: T1, human PPARγ (Homo sapiens, UniProt P37231); assay: PPARγ/Gal4 transactivation system; format: cell-based
T1 construct: expressed in transfected cells; host or cells: RK13 or COS-7
T1 sequence (P37231 238-503 limits assumed): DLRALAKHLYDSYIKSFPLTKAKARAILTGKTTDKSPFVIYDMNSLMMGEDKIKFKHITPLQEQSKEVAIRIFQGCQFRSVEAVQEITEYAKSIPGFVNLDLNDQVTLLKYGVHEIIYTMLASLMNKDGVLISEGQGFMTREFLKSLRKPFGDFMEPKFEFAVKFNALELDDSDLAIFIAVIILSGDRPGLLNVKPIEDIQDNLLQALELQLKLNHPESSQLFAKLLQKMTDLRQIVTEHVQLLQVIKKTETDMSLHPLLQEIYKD
Protocol: (§1) PPAR activation was tested in vitro in RK13 or COS-7 fibroblast cell lines by measuring the transcriptional activity of chimeras composed of the DNA binding domain of the yeast Gal4 transcription factor and the ligand binding domain of the different PPARs. These latter results were then confirmed in cell lines according to the following protocols.
(§2) Culture protocols: RK13 were from ECACC (Porton Down, UK) and were grown in DMEM medium supplemented with 10% (V/V) fetal calf serum, 100 U/ml penicillin (Gibco, Paisley, UK) and 2 mM L-glutamine (Gibco, Paisley, UK). COS-7 cells were from ATCC and were grown in DMEM medium supplemented with 10% (V/V) fetal calf serum, 1% penicillin/streptomycine (Biochrom, AG), 1% of amino acids (Gibco) and 1% sodium pyruvate (Gibco).
(§3) The culture medium was changed every two days. Cells were kept at 37° C. in a humidified 95% air/5% CO2 atmosphere.
(§4) Description of plasmids used for transfection: The plasmids Gal4(RE)_TkpGL3, pGal4-hPPARα, pGal4-hPPARγ, pGal4-hPPARδ and pGal4-φ have been described in the literature (Raspe E et al., 1999). The pGal4-hPPARα, pGal4-hPPARγ and pGal4-hPPARδ constructs were obtained by cloning into the pGal4-φ vector PCR-amplified DNA fragments corresponding to the DEF domains of the human PPARs nuclear receptors.
(§5) Transfection of RK13: RK13 cells were seeded in 24-well culture dishes at 5×10^4 cells/well and transfected for 2 hours with the reporter plasmid Gal4(RE)_TkpGL3 (50 ng/well), the expression vectors pGal4-φ, pGal4-hPPARα, pGal4-hPPARγ and pGal-hPPARδ (100 ng/well) and the transfection efficiency control vector pRL-CMV (1 ng/well) according to the previously described protocol (Raspe E, Madsen L, Lefebvre A M, Leitersdorf I, Gelman L, Peinado-Onsurbe J, Dallongeville J, Fruchart J C, Berge R and Staels B, 1999), then incubated for 36 hours with the test compounds. RK13 cells were incubated with the different compounds at concentrations of 10, 30 and 100 μM or 1, 10 and 100 μM for 24 hours. At the end of the experiment, the cells were lysed (Gibco, Paisley, UK) and luciferase activity was determined with a Dual-Luciferase™ Reporter Assay System kit (Promega, Madison, Wis., USA) according to the supplier's instructions. The protein content of the cell extracts was then measured with the Bio-Rad Protein Assay (Bio-Rad, Munich, Germany) as directed by the supplier.
(§6) Transfection of COS7: Cells in suspension are transfected, in the presence of 10% (V/V) fetal calf serum, with 150 ng of DNA per well with a pGal4-PPAR/Gal4(RE)_TkpGL3 ratio of 1/10. Cells are then seeded in 96 well plates (4×10^4 cells/well) and incubated for 24 hours at 37° C. Activation with compounds is performed on 24 hours at 37° C. in culture medium without serum. At the end of the activation period, cells are lysed and luciferase activity is determined, using the Steady Glow Luciferase Kit (Promega), according to the supplier's instructions.

[1] = test system: Human normal primary fibroblasts; assay: Antioxidant properties on cell cultures (carboxy-H2DCFDA fluorescence, AAPH stress), fibroblasts; format: cell-based; settings: AAPH 750 μM; for antioxidant properties on cell cultures (in words): 25 μM for 24 h
Protocol: (§7) The reduction in the intensity of the emitted fluorescence signal was determined in cells treated with the compounds in the following manner.
(§8) Prior to stress the cells with an oxidative agent such as AAPH (CAS number 2997-92-4), cells are incubated with compounds of interest at 25 μM for 24 h. Then the culture medium is discarded and cells are rinsed two times with PBS. Cells are then incubated 30 min at 37° C. with a cell-permeant indicator for reactive oxygen species that is nonfluorescent until the acetate groups are removed by intracellular esterases and oxidation occurs within the cell 5-(and-6)-carboxy-2′,7′-dichlorodihydrofluorescein diacetate (carboxy-H2DCFDA). The probes are prepared in PBS and incubated at the final concentration of 25 μM. After the incubation with the probe, cells are rinsed and incubated another 30 min with the oxidative solution containing AAPH at 750 μM in culture medium without phenol red and serum.
(§9) The fluorescence is then measured with a fluorimeter with the following wavelength, […].
(§10) Two different cell types have been tested with the inventive compounds. Human normal primary fibroblasts and HaCat cells which are a human keratinocyte cell line.

human PPARα = target: T2, human PPARα (Homo sapiens, UniProt Q07869); assay: PPARα/Gal4 transactivation system; format: cell-based; settings: for concentration at which maximal activity is observed: PPAR/Gal4 transactivation system
T2 construct: expressed in transfected cells; host or cells: RK13 or COS-7
T2 sequence (Q07869 239-466 limits assumed): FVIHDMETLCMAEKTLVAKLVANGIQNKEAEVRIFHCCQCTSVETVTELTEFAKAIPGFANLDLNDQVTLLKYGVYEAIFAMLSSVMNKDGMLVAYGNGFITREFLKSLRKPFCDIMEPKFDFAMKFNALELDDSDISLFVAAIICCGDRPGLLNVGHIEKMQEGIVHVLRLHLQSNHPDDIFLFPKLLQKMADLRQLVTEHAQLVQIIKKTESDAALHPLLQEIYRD
Protocol: as §1, §2, §3, §4, §5, §6

HaCat cells = assay: Antioxidant properties on cell cultures (carboxy-H2DCFDA fluorescence, AAPH stress), keratinocytes; format: cell-based, human; settings: AAPH 750 μM; for antioxidant properties on cell cultures (in words): 25 μM for 24 h
Protocol: as §7, §8, §9, §10

[2] = test system: hApoE2 Knock-in transgenic mice; assay: Effects on triglycerides and cholesterol metabolism in vivo; design: species or system mouse
Protocol: Treatment of animals: hApoE2 knock-in transgenic mice were kept on a 12-hour light/dark cycle at a constant temperature of 20±3° C. After a 1 week acclimation, mice were separated in groups of 6 animals selected such that the distribution of their body weight and plasmatic lipid levels determined before the experiment were uniform. The test compounds were suspended in carboxymethylcellulose and administered by intragastric gavage at the indicated doses, once a day for 7 or 8 days. Animals had access to food and water ad libitum. At the end of the experiment the animals were weighed and sacrificed under anesthesia. Blood was collected on EDTA. Plasma was prepared by centrifugation at 3000 rpm for 20 minutes. Organs were harvested, frozen in liquid nitrogen and stored at −80° C. for subsequent analysis.
Measurement of serum lipids: Serum lipid concentrations (total cholesterol and triglycerides) were determined by a colorimetric assay (Boehringer, Mannheim, Germany) according to the supplier's instructions.

human PPARδ = target: T3, human PPARδ (Homo sapiens, UniProt Q03181); assay: PPARδ/Gal4 transactivation system; format: cell-based
T3 construct: expressed in transfected cells; host or cells: RK13 or COS-7
T3 sequence (Q03181 211-439 limits assumed): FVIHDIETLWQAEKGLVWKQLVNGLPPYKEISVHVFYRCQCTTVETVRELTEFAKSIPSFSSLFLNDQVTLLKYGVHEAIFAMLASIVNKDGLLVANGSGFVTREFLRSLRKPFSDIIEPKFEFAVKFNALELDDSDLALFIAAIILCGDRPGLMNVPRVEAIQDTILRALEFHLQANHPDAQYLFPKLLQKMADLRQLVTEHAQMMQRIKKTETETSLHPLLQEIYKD
Protocol: as §1, §2, §3, §4, §5
Transfection of COS7: Cells in suspension are transfected, in the presence of 10% (V/V) fetal calf serum, with 150 ng of DNA per well with a pGal4-PPAR/Gal4(RE)_TkpGL3 ratio of 1/10. […] At the end of the activation period, cells are lysed and luciferase activity is determined, using the Steady Glow Luciferase Kit (Promega), according to the supplier's instructions.

LDL = assay: Protection against LDL oxidation by copper (conjugated diene formation); format: biochemical; settings: for lag phase of conjugated diene formation / rate of conjugated diene formation: 10^−4M
Protocol: LDL oxidation is an important alteration and plays a predominant role in the establishment and development of atherosclerosis (Jurgens G et al., 1987). […] Unless otherwise indicated, the reagents were from Sigma (St Quentin, France). LDL were prepared according to the method described by (Havel R J et al., 1955). The solutions of test compounds were prepared at 10^−2 M concentration in bicarbonate buffer (pH 9) and diluted in PBS to obtain final concentrations ranging from 0.1 to 100 μM for a total ethanol concentration of […]. Prior to oxidation, EDTA was removed from the LDL preparation by dialysis. Oxidation then took place at 30° C. by addition of 100 μl of 16.6 μM CuSO4 solution to 160 μL of LDL (125 μg protein/ml) and 20 μl of a test compound solution. The formation of dienes, the species under observation, was followed by measuring optical density at 234 nm in the samples treated with the compounds but in the presence or absence of copper. Optical density at 234 nm was measured every 10 minutes for 8 hours in a thermostated spectrophotometer (Tecan Ultra 380). The compounds were considered to have antioxidant activity when they induced a longer lag phase and reduced the rate of oxidation and the amount of dienes formed in comparison with the control sample.

[3] = PPAR/Gal4 transactivation system
[4] = 50 mg/kg/day for 7 or 8 days, FIGS. 4-13, 4-15, 4-17, 4-19
[5] = 50 mg/kg/day for 7 or 8 days, FIGS. 4-14, 4-16, 4-18, 4-20

Row | Structure (SMILES) | concentration at which maximal activity is observed (human PPARα) [µM] | activation of PPAR δ (in words) (human PPARδ) | activation of PPAR γ (in words) (human PPARγ; [3]) | induction factor (luminescent signal relative to untreated cells) (human PPARα; 10 μM) | induction factor (luminescent signal relative to untreated cells) (human PPARα; 100 μM) | antioxidant properties on cell cultures (in words) [1] | antioxidant properties on cell cultures (in words) (HaCat cells) | plasma cholesterol [2, 4] | plasma triglycerides [2, 5] | other results
1 | Cc1cc(/C=C/C(=O)c2ccc(SC(F)(F)F)cc2)cc(C)c1OC(C)(C)C(=O)O [Compound 54, 1-[4-trifluoromethylthiophenyl]-3-[3,5-dimethyl-4-carboxydimethylmethyloxyphenyl]prop-2-en-1-one] | 0.03 | can activate | can activate | – | – | antioxidant properties | antioxidant properties | decrease | decrease | –
2 | Cc1cc(/C=C/C(=O)c2ccc(Cl)cc2)cc(C)c1OC(C)(C)C(=O)O [Compound 17, 1-[4-chlorophenyl]-3-[3,5-dimethyl-4-carboxydimethylmethyloxyphenyl]prop-2-en-1-one] | – | – | – | 85 | 13.8 | – | – | – | – | maximum induction factor (human PPARγ; 10 μM): 25; cholesterol in lipoparticle subfraction (exclusion chromatography) ([2]; gavage 200 mg/kg for 7 days): decreased; plasma concentration of cholesterol ([2]; gavage 200 mg/kg for 7 days): decrease; plasma concentration of triglycerides ([2]; gavage 200 mg/kg for 7 days): decrease; triglycerides in lipoparticle subfraction (exclusion chromatography) ([2]; gavage 200 mg/kg for 7 days): decreased; lag phase of conjugated diene formation (LDL; FIG. 1-1, copper alone 111 minutes): 203 min; rate of conjugated diene formation (LDL; FIG. 1-2, copper alone 2): 1.7 nmol/min/mg of LDL
3 | CCCCCCOc1ccc(C(=O)/C=C/c2cc(C)c(OC(C)(C)C(=O)O)c(C)c2)cc1 [Compound 33, 1-[4-hexyloxyphenyl]-3-[3,5-dimethyl-4-carboxydimethylmethyloxyphenyl]prop-2-en-1-one] | – | – | – | 44 | 77 | antioxidant properties | antioxidant properties | – | – | maximum induction factor (human PPARγ; 100 μM): 45.6; induction factor (luminescent signal relative to untreated cells) (human PPARα; 1 μM): 22; cholesterol in lipoparticle subfraction (exclusion chromatography) ([2]; 50 mg/kg/day for 8 days): decrease; plasma cholesterol ([2]; 50 mg/kg/day for 8 days): decrease; plasma triglycerides ([2]; 50 mg/kg/day for 8 days): decrease; triglycerides in lipoparticle subfraction (exclusion chromatography) ([2]; 50 mg/kg/day for 8 days): decrease; lag phase of conjugated diene formation (LDL; FIG. 1-9, copper alone 80 minutes): 247 min; rate of conjugated diene formation (LDL; FIG. 1-10, copper alone 1.9): 0.8 nmol/min/mg of LDL; maximum amount of conjugated dienes formed (LDL; FIG. 1-11, copper alone 298): 257 nmol per mg of LDL

Second part, led by results:

Row | concentration at which maximal activity is observed (human PPARα) [µM] | activation of PPAR δ (in words) (human PPARδ) | activation of PPAR γ (in words) (human PPARγ; [3]) | induction factor (luminescent signal relative to untreated cells) (human PPARα; 10 μM) | induction factor (luminescent signal relative to untreated cells) (human PPARα; 100 μM) | Structure (SMILES) | antioxidant properties on cell cultures (in words) [1] | antioxidant properties on cell cultures (in words) (HaCat cells) | plasma cholesterol [2, 4] | plasma triglycerides [2, 5] | other results
4 | 0.3 | can activate | – | – | – | Cc1cc(/C=C/C(=O)c2ccc(C(F)(F)F)cc2)cc(C)c1OC(C)(C)C(=O)O [Compound 58, 1-[4-trifluoromethylphenyl]-3-[3,5-dimethyl-4-carboxydimethylmethyloxyphenyl]prop-2-en-1-one] | antioxidant properties | antioxidant properties | decrease | decrease | concentration at which maximal activity is observed (human PPARγ; [3]): 1 µM
5 | 0.03 | can also activate | can also activate | – | – | CCCOc1ccc(C(=O)/C=C/c2cc(C)c(OC(C)(C)C(=O)O)c(C)c2)cc1 [Compound 70, 1-[4-propyloxyphenyl]-3-[3,5-dimethyl-4-carboxydimethylmethyloxyphenyl]prop-2-en-1-one] | – | – | decrease | decrease | % of oxidative reduction versus control cells ([1]; compounds at 25 μM for 24 h): 53%; % of oxidative reduction versus control cells (HaCat cells; compounds at 25 μM for 24 h): 47%
